Assay results from article PMC10050424, “Structural basis of the substrate recognition and inhibition mechanism of Plasmodium falciparum nucleoside transporter PfENT1” (Nature Communications, 2023).
“And” between values parts separate entries of the source, which are not always exact repeats. Equal entries are not always repeated.

Columns and labels:
[1] = biological target: T1, PfENT1 (Plasmodium falciparum, UniProt Q8IDM6); test: cell-based; type: cell-based; settings: uptake without competitor set as 100%, Fig. 1c; for remaining activity at 5000 µM: 0.5 h, read-out: Uptake of [3H]-inosine (Percentage of PfENT1 WT), competition by nonradioactive nucleoside/nucleobase 5 mM, 30 min, 30 °C; for Uptake of [3H]-inosine (Percentage of PfENT1 WT): competition by nonradioactive nucleoside/nucleobase 5 mM, 30 min, 30 °C
T1 construct: expressed in transfected cells; host or cells: S. cerevisiae BY4741, FUI1 deleted, PfENT1 knock-in under the TEF1 promoter
Experimental: The S. cerevisiae strain (ATCC, #201388) BY4741 (MATa his3Δ1 leu2Δ0 met15Δ0 ura3Δ0) was used as the starting yeast strain. Yeast strains were cultured in YPD medium (20 g/L peptone, 10 g/L yeast extract, and 20 g/L dextrose). The antibiotic G418 was supplemented at a concentration of 250 μg/mL to select strains carrying the KanMX marker. E. coli DH5α was used for subcloning.
Codon-optimized PfENT1 (for expression in yeast) was synthesized by Sangon Biotech. The carboxyl terminus of PfENT1 was HA-tagged through PCR. The TEF1p promoter and PGK1t terminator were amplified from BY4741 genomic DNA. Overlap PCR was applied to generate the gene overexpression cassette of PfENT1 (TEF1p promoter-PfENT1-PGK1t terminator). The two 600-bp homologous arms corresponding to the upstream and downstream regions of the FUI1 gene were amplified from BY4741 genomic DNA. The gene cassette of the ‘TEF1p promoter-PfENT1-PGK1t terminator’ together with the two homologous arms was cloned into the PUC19 plasmid through Gibson assembly, generating the final plasmid PUC19: PfENT1. PfENT1 mutations were generated using point mutation and verified by Sanger sequencing. The spacer targeting the FUI1 gene (5ʹ-[…]-3ʹ) was cloned into the pCas-BsaI plasmid to generate the pCas-FUI1 plasmid as described previously.
To obtain fui1Δ and PfENT1 (or its mutations) overexpression in the S. cerevisiae strain, 1 μg pCas-FUI1 plasmid and 15 μg PUC19:PfENT1 were transformed into yeast using the LiAc/ssDNA/PEG method. Then, the strains were plated on a YPD plate supplemented with G418. Clones were screened using PCR and finally verified through Sanger sequencing.
Cells were grown overnight in YPD medium to mid-log phase and harvested by centrifugation at 3000 × g for 5 min. Cells were washed three times in 2% glucose. The yeast pellets were resuspended in uptake assay buffer (25 mM Tris-HCl 8.0,150 mM NaCl, 2% glucose) to a final concentration of 2 × 10^8 cells mL^–1. The uptake assay was initiated by combining 100 μL of prewarmed (30 °C) cells and 100 μL uptake assay buffer mixture: 25 mM Tris-HCl 8.0, 150 mM NaCl, 2% glucose, 200 nM [^3H] Inosine ([8-^3H] inosine; 20 Ci mmol^–1, American Radiolabeled Chemicals). Cells were removed onto a membrane filter at the appropriate times to generate the time course. After washing by vacuum filtration with 2 ml ice-cold 2% glucose, the radioactivity retained on the filter was incubated with 1 mL of ULTIMA GOLD scintillation fluid (Perkin Elmer, 77-15311). Counts were measured using a liquid scintillation analyzer (Perkin Elmer, Tri-Carb 5110TR).
For competition assays, the indicated nucleosides and nucleobase were added into the external uptake assay buffer (25 mM Tris-HCl 8.0, 150 mM NaCl, and 2% glucose) to a final concentration of 5 mM, and the transport reaction was stopped at 30 min. The reading of the competition assays was normalized against the one without a competitor, which had the uptake of radiolabeled inosine set as 100%. All uptake assays were performed at 30 °C and repeated three times. Error bars represent the s.d. The final result was analyzed in the GraphPad Prism 8 software ([…]).

[2] = biological target: T2, PfENT1WT (Plasmodium falciparum, UniProt Q8IDM6); test: biochemical; type: binding
T2 construct: 10xHis (N); made in house; host or cells: Sf9 insect cells (baculovirus)
Experimental: For the in vitro binding assay, Sf9 cells were solubilized in lysis buffer containing 2% (w/v) n-dodecyl-β-D-maltopyranoside (DDM, Anatrace) and protease inhibitor cocktail (0.8 μM aprotinin, 2 μM pepstatin, and 5 μg/ml leupeptin) at 4 °C for 2 h. The soluble supernatant was collected via centrifugation and incubated with Ni-NTA resin (QIAGEN) at 4 °C for 1 h. The resin was washed and eluted using lysis buffer containing 0.05% (w/v) DDM and 30 mM/300 mM imidazole. The protein was further purified by size-exclusion chromatography (Superdex 200 Increase 10/300; GE Healthcare) in buffer containing 25 mM MES (pH 6.0), 150 mM NaCl, and 0.05% (w/v) DDM. The peak fractions were pooled and concentrated to 10~50 μM for the nucleoside-binding assay.
The binding affinity between wild-type and mutant PfENT1 with nucleosides and GSK4 was measured using a Micro-Cal ITC200 (Malvern). All proteins were prepared in 25 mM MES (pH 6.0), 150 mM NaCl, and 0.05% (w/v) DDM. Nucleosides (5~10 mM) and GSK4 (100-200 μM) dissolved in the same buffer were titrated against 20–50 μM PfENT1 proteins at 25 °C. PEAQ-ITC analysis software (MicroCal) was employed to analyze the data. All titrations were repeated three times.

[3] = ITC, 25 °C, pH 6.0, mean ± SD (n = 3), Fig. 1a and text

T1 sequence (Q8IDM6 whole entry): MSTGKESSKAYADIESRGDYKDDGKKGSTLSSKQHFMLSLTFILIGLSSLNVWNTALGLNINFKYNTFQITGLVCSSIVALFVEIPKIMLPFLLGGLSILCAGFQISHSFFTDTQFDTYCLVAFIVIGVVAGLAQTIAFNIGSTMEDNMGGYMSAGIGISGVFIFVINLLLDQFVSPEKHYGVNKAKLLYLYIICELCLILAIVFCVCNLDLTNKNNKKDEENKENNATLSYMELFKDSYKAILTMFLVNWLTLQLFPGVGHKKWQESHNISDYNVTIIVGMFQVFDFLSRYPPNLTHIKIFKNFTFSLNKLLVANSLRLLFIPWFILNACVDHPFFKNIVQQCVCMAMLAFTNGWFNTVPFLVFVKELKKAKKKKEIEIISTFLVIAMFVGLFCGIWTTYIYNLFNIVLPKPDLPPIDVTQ
T2 sequence (Q8IDM6 whole entry): as above

Structure (SMILES)	remaining activity at 5000 µM [1]	Uptake of [3H]-inosine (Percentage of PfENT1 WT) [1]	binding affinity (Kd) [2, 3]	Kd ([2]; Kd, Mean and Mean ± SD, source data Figure 1a)	Kd ([2]; Kd, N=3 (individual experiments), source data Figure 1a)	Kd ([2]; binding affinity (Kd), ITC, 25 °C, pH 6.0, mean ± SD (n = 3), Fig. 1a and text)	Uptake of [3H]-inosine (Percentage of PfENT1 WT) ([1]; listed as thymidine)
Nc1ncnc2c1ncn2[C@@H]1O[C@H](CO)[C@@H](O)[C@H]1O [Adenosine, adenosine]	18%	relatively lower than that of inosine and guanosine					
Nc1ccn([C@@H]2O[C@H](CO)[C@@H](O)[C@H]2O)c(=O)n1 [Cytidine, cytidine]		did not influence inosine uptake	undetectable				
Nc1nc2c(ncn2[C@@H]2O[C@H](CO)[C@@H](O)[C@H]2O)c(=O)[nH]1 [Guanosine, guanosine]	10%	abolished		186 µM	172 µM and 179 µM and 207 µM	~186 µM and 186 µM	
O=c1[nH]cnc2nc[nH]c12 [Hypoxanthine, hypoxanthine]	23%	partial inhibition	undetectable				
Cc1cn([C@H]2C[C@H](O)[C@@H](CO)O2)c(=O)[nH]c1=O [Thymidine, thymidine]	42%	41%	undetectable				partially reduce inosine uptake
O=c1ccn([C@@H]2O[C@H](CO)[C@@H](O)[C@H]2O)c(=O)[nH]1 [Uridine, uridine]	81%	partially reduce inosine uptake	undetectable				
